Data as given in patent publication US20250304893A1, “PERFUSABLE 3D TUBULE-ON-CHIP MODEL DERIVED FROM KIDNEY ORGANOIDS WITH IMPROVED DRUG UPTAKE” (President and Fellows of Harvard College, priority 2022, published 2025).

Tests used:
OPTECs = experiment: 2D OPTEC culture with media supplements to minimize epithelial to mesenchymal transition; format: cell-based, human
Method: Organoid-derived PTECs (OPTECs) were cultured in 24-well plates pretreated with 1:20 laminin-511 (Biolamina LN511) in DPBS with calcium and magnesium. For passages 0 and 1, the OPTECs were cultured in REGM media supplemented with 1% FBS. Upon reaching passage 2, the OPTECs were cultured using LPTEC media supplemented with 1% FBS and 10 μM SB431542 (ab120163). Each passage was performed when the cells reached ˜90% confluency by first washing the cells with DPBS without calcium and magnesium, treating with 0.05% trypsin/EDTA for 3-5 min (or until cells lifted off the plate), followed by quenching with culture medium, centrifuging at 240 ref for 4 min, resuspending in culture media, and seeding each laminin pre-treated well at a density of 70,000-100,000 cells/cm^2.
Next, the effects of two different media were tested: (1) modified DMEM F-12 medium described by previous work^14 (LPTEC) and (2) commercially available renal epithelial growth medium (REGM). […] To further promote cell attachment, growth, and proliferation, 1% FBS was added to the media. To minimize epithelial to mesenchymal transition (EMT), the effects of transforming growth factor (TGF-β), bone morphogenic protein 7 (BMP7) and TGF-β/activin/NODAL pathway (SB431542) inhibitors were explored (FIG. 6k-l)^26. […]

OPTEC tubules [1] = settings: 48 h
Method: Before beginning these experiments, three important steps were carried out: (1) all reservoirs were supplied with fresh media, (2) all outlet tubing was cut to the same length, and (3) all chips were subjected to one-way rather than recirculating back to the media reservoir. After each chip within the MCDs was subjected to one-way flow (2 μL/min) for 4 h, a baseline sample of the perfusate was collected from the luminal outlet tubing for 3 h into a 1.6 mL Eppendorf tube. Next, cisplatin (50 μM) or aristolochic acid (25 μM) was delivered basolaterally on chip by manually pipetting each drug solution to the appropriate basal media reservoir. Next, all tubing was reconnected to the peristaltic pump and allowed to flow at a flow rate of 2 μL/min. After 48 h, another sample of the perfusate was collected from the luminal outlet tubing for 3 h into a 1.6 mL Eppendorf tube. All collected luminal media samples were spun down at 5000 rcf for 5 min to remove cellular debris. Each supernatant was transferred to a fresh tube and stored at −20° C. to run the LDH assay. For samples pre-treated with inhibitors, cimetidine (1 mM) or probenecid (2 mM) was first added to the basal reservoir, delivered basolaterally, and allowed to diffuse through the gelatin-fibrin matrix during recirculating flow for 1 h.
LDH assays were performed according to the manufacturer's instructions (Promega, CytoTox Non-Radioactive Cytotoxicity Assay, G1780). The frozen media samples were thawed at room temperature and used after this first thaw cycle. Next, 50 μL of each media was transferred to a 96-well plate and incubated at 37° C. for 30 min with 50 μL of CytoTox 96 reagent. 50 μL of stop solution was then added, all bubbles were removed using a syringe, and their absorbance was recorded at 490 nm using a plate reader.
(§1) Normalized LDH release was calculated using the following equation: […]
(§2) LDH48 was the recorded absorbance of the 48-h perfusate sample and LDHbaseline was the recorded absorbance of baseline perfusate sample before drug exposure. Normalized LDH release was calculated for each of the tubules individually and plotted into sample groups comparing OPTEC-on-chip and PTEC-TERT1-on-chip models subjected to each drug ±inhibitor.
To assess nephrotoxicity, luminal perfusate was collected and LDH analyses were performed. LDH is a cytosolic enzyme found in nearly all cell types, including PTECs, that is released upon cellular damage^29. […] Due to differences in their baseline LDH release among different tubules across the two cell types, a normalized LDH release (LDH release at 48 h relative to baseline release) was determined for each sample, i.e., OPTEC and PTEC-TERT1 tubules without drug, with drug, and with drug and corresponding inhibitors for OCT2 and OAT1/3 transporters, respectively.

PTEC-TERT1 tubules = experiment: Nephrotoxicity testing: normalized LDH release in luminal perfusate of PTEC-TERT1-on-chip tubules (control chips); format: cell-based, human
Method: Before beginning these experiments, three important steps were carried out: (1) all reservoirs were supplied with fresh media, (2) all outlet tubing was cut to the same length, and (3) all chips were subjected to one-way rather than recirculating back to the media reservoir. After each chip within the MCDs was subjected to one-way flow (2 μL/min) for 4 h, a baseline sample of the perfusate was collected from the luminal outlet tubing for 3 h into a 1.6 mL Eppendorf tube. Next, cisplatin (50 μM) or aristolochic acid (25 μM) was delivered basolaterally on chip by manually pipetting each drug solution to the appropriate basal media reservoir. […]
LDH assays were performed according to the manufacturer's instructions (Promega, CytoTox Non-Radioactive Cytotoxicity Assay, G1780). […] 50 μL of stop solution was then added, all bubbles were removed using a syringe, and their absorbance was recorded at 490 nm using a plate reader.
as §1
as §2, with “±inhibitor. […]” for “±inhibitor.”

OPTEC tubules [2] = experiment: Diffusional permeability measurement of FITC-inulin through tubules on chip; format: cell-based, human; settings: 4.5 kDa FITC-inulin 100 μg/mL perfused through lumen, OPTEC tubules vs PTEC-TERT1 tubules (control)
Method: The barrier function of the 3D OPTECs- and PTEC-TERT1 s based models was assessed by measuring the diffusional permeability of 4.5 kDa inulin. This compound was selected because is neither up taken up nor secreted by PTECs in-vivo. FITC-labeled inulin (Sigma product F3272) was dissolved in prewarmed LPTEC media at a concentration of 100 μg/mL and perfused through the luminal channel at a rate of 20 μL/min for 3 min and 1.5 μL/min thereafter for 15 min. The diffusion of FITC-inulin was calculated by: […]
Where Pd is the diffusional permeability coefficient, I1 is the average intensity at the initial time point, I2 is the average intensity at time t, Ib is the background intensity taken before perfusion of FITC-inulin, and dis the diameter of the channel^13.

UB cells = experiment: FITC-inulin retention in perfused epithelialized UB channels on chip (barrier function); format: cell-based, human; settings: perfused epithelialized UB channels vs empty channels, after 1 hour
Method: To fabricate this chip, first the various chip components were assembled (FIG. 17A) and ECM was added to an inner reservoir around a pin and crosslinked. The pin was then removed forming an open channel that can be seeded with cells (FIG. 17B). This design allowed for easy access to the ECM and medium bathing the ECM. After seeding, cells formed confluent monolayers along channel walls within 3-7 days (FIG. 16C,D,E). Perfused epithelialized channels retained FITC-inulin after 1 hour relative to empty channels, indicating barrier function (FIG. 16F,G).

NC(=O)c1ccc(-c2nc(-c3ccc4c(c3)OCO4)c(-c3ccccn3)[nH]2)cc1 [SB431542]
cell morphology during prolonged cell culture (OPTECs; 10 μM, OPTECs 2D culture): cuboidal cell morphology | EMT marker expression in 2D OPTEC monolayers (OPTECs; SB431542 as media supplement, 2D culture): down regulation of EMT markers

COc1cccc2c1cc([N+](=O)[O-])c1c(C(=O)O)cc3c(c12)OCO3 [aristolochic acid]
LDH release compared to PTEC-TERT1 tubules (OPTEC tubules [1]; 25 μM aristolochic acid delivered basolaterally, OPTEC tubules on chip): significantly higher

CN/C(=N/CCSCc1nc[nH]c1C)NC#N [cimetidine]
decrease of normalized LDH release upon OCT2 inhibitor (factor) (OPTEC tubules [1]; cimetidine 1 mM pre-treatment, 50 μM cisplatin, OPTEC tubules): > 2 | effect of OCT2 inhibition on normalized LDH release (PTEC-TERT1 tubules; cimetidine 1 mM, same cisplatin dose (50 μM)): far less effect

N.N.[Cl][Pt][Cl] [cisplatin]
normalized LDH response compared to PTEC-TERT1 s (OPTEC tubules [1]; 50 μM cisplatin delivered basolaterally, OPTEC tubules on chip): significantly higher

CCCN(CCC)S(=O)(=O)c1ccc(C(=O)O)cc1 [probenecid]
normalized LDH release upon OAT1/3 inhibitor (OPTEC tubules [1]; probenecid 2 mM pre-treatment, 25 μM aristolochic acid, OPTEC tubules): substantially reduced | effect of OAT1/3 inhibition on normalized LDH release (PTEC-TERT1 tubules; probenecid 2 mM, same aristolochic acid dose (25 μM)): negligible effect

FITC-inulin
diffusional permeability (OPTEC tubules [2]): comparable to that observed for PTEC-TERT1 tubules | retention of FITC-inulin in channel (barrier function) (UB cells): retained
